Data reported in patent publication US10479854B2, “Conjugate for treating malaria” (priority 2014, dated 2019).

Tested on: chloroquine-resistant Plasmodium falciparum strain (D10R)
Test: In vitro anti-malaria assay (Malstat, lactate dehydrogenase)
Format: cell-based
Settings: read-out: IC50(chloroquine)
Protocol: In separate experiments, tyrocidine/tryptocidines conjugated to polymers 11 and 12, respectively, were administered at varying concentrations to blood samples containing cells infected with a chloroquine-resistant Plasmodium falciparum strain (D10 resistant mutant denoted D10R, IC50(chloroquine)>100 nM). For comparison purposes, the unconjugated/unmodified natural tyrocidine/tryptocidine mixture was also administered to blood infected with the same chloroquin-resistant malaria strain. FIGS. 16 and 17 show the antimalaria activity and the haemolytic activity of the tyrocidine/tryptocidine-PVP conjugates in comparison with the natural cyclodecapetide mixture. […]
P. falciparum (D10 strain) was cultured and dose-response assays were performed as previously described.^9 Briefly, parasites were cultured under an atmosphere of 3% CO2, 4% O2 and 93% N2 in RPMI-1640 media, supplemented with 25 mM HEPES, 50 mM glucose, 0.65 mM hypoxanthine, 0.048 mg/mL gentamicin, 0.2% (w/v) NaHCO3, 0.5% (w/v) Albumax II and 2% fresh human O^+ erythrocytes obtained from anonymous donors from the Western Cape Blood Blank. […] A 10 μL aliquot from each well was diluted to 100 μL with phosphate buffered saline and analysed at 405 nm, on a plate reader, to determine the quantity of released haemoglobin and haemolytic activity of the conjugates. […]

## CCN(CC)CCCC(C)Nc1ccnc2cc(Cl)ccc12 (stereo not shown) [chloroquine]
  IC50: > 100 nM
